From US11945812B2, “Annulated 2-amino-3-cyano thiophenes and derivatives for the treatment of cancer” (Boehringer Ingelheim International GmbH, priority 2020, dated 2024)
pIC50: −log10 of the molar value. Like-named read-outs stand apart in the source and are kept apart here.

Experiments:
[1] = molecular target: Ba/F3 cells bearing a KRAS G12C mutation (Homo sapiens, UniProt P01116, G12C, cells depend on it); test: Ba/F3 cell model proliferation assay (AlamarBlue, 72 h); assay type: cell-based; details: Ba/F3 KRAS G12C cells, 72 h, 10% FCS, uncorrected; read-out: IC50 Ba/F3 KRASG12C
Ba/F3 cells bearing a KRAS G12C mutation, sequence (P01116 whole entry G12C): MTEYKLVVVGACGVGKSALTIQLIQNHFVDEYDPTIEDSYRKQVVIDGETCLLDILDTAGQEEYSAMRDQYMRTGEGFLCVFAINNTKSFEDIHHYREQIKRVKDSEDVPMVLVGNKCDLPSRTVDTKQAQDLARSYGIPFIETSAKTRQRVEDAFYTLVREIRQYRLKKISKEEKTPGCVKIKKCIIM
Experimental: Ba/F3 Cell Model Generation and Proliferation Assay
Plasmids containing KRASG12 mutants were obtained from GeneScript. To generate KRASG12-dependent Ba/F3 models, Ba/F3 cells were transduced with retroviruses containing vectors that harbor KRASG12 isoforms. Platinum-E cells (Cell Biolabs) were used for retrovirus packaging. Retrovirus was added to Ba/F3 cells. To ensure infection, 4 μg/mL polybrene was added and cells were spinfected. […] Cells with an infection efficiency of 10% to 20% were further cultivated and puromycin selection with 1 μg/mL was initiated. As a control, parental Ba/F3 cells were used to show selection status. Selection was considered successful when parental Ba/F3 cells cultures died. To evaluate the transforming potential of KRASG12 mutations, the growth medium was no longer supplemented with IL-3. Ba/F3 cells harboring the empty vector were used as a control. Approximately ten days before conducting the experiments, puromycin was left out.
All treatments were performed in technical duplicates. The assay is run using a fully automated robotic system. Treated cells were incubated for 72 h at 37° C. with 5% CO2. AlamarBlue™ (ThermoFisher), a viability stain, was added and fluorescence measured in the PerkinElmer Envision HTS Multilabel Reader.

NCI-H358 cells = test: NCI-H358 CTG proliferation assay (120 h) (NSCLC); assay type: cell-based; details: Homo sapiens, read-out: IC50 NCl-H358
Experimental: NCI-H358 CTG Proliferation Assay (120 h) (NSCLC)
NCI-H358 cells (ATCC No. CRL-5807) were dispensed into white bottom opaque 96 well plates (Perkin Elmer cat no. 5680) at a density of 2000 cells per well in 100 μL RPMI-1640 ATCC-Formulation (Gibco # A10491)+10% FCS. Cells were incubated overnight at 37° C. in a humidified tissue culture incubator at 5% CO2. Compounds (10 mM stock in DMSO) were added at logarithmic dose series using the HP Digital Dispenser D300 (Tecan), normalizing for added DMSO. For the TO time point measurement, untreated cells were analyzed at the time of compound addition. Plates were incubated for 120 hours, and cell viability was measured using CellTiter-Glo luminescent cell viability reagent (Promega product code G7570). Viability (stated as percent of control) is defined as relative luminescence units RLU of each well divided by the RLU of cells in DMSO controls. IC50 values were determined from viability measurements by non-linear regression using a four parameter model.

[2] = tested on: ERK phosphorylation in NCI-H358_Cas9_SOS2; test: ERK phosphorylation assay 2 (AlphaLISA SureFire Ultra p-ERK1/2), SOS2 knock-out; assay type: cell-based; details: Homo sapiens, NCI-H358; assay 2 (marked with *); read-out: IC50 H358 pERK
Excerpt: (§1) ERK Phosphorylation Assay
(§2) Materials Used for the Assay;

[3] = molecular target: T1, KRAS G12C::SOS1 protein-protein interaction (Homo sapiens, UniProt P01116, C118S/C51S/C80L/G12C); test: KRAS::SOS1 AlphaScreen binding assay
T1 construct: His6 (N); host or cells: E. coli
T1 sequence (P01116 1-169 isoform P01116-2 G12C/C51S/C80L/C118S): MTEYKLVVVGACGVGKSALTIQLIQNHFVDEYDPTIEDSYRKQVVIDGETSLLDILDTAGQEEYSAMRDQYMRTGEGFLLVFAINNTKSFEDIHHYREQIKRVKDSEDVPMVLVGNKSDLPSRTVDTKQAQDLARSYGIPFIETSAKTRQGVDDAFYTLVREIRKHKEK
Excerpt: KRAS::SOS1 AlphaScreen Binding Assay
Reagents: • GST-tagged SOS1 (564_1049_GST_TEV_ECO) produced in-house • GST-TEV-SOS1 (564-1049) is purchased from Viva Biotech Ltd. • The expression construct of KRAS G12C (amino acids 1-169 of reference sequence P01116-2 (uniprot), with additional mutations: C51S, C80L, and C118S) containing a C-terminal avi-tag was obtained by gene synthesis (GeneArt, Thermo Fisher) in donor vector (pDONR-221) and transferred by recombinant cloning into pDEST17 vector bearing an N-terminal His6-tag. The protein was expressed in E. coli and the purified protein was biotinylated with the E. coli biotin ligase (BirA) before usage. • GDP (Sigma Cat No G7127) • AlphaLISA Glutathione Acceptor Beads (PerkinElmer, Cat No AL109) • AlphaScreen Streptavidin Donor Beads (PerkinElmer Cat No 6760002) • Assay plates: Proxiplate-384 PLUS, white (PerkinElmer, Cat No 6008289)
Assay Buffer: • 1×PBS • 0.1% BSA • 0.05% Tween 20
7.5 nM (final assay concentration) KRAS G12C, 10 μM (final assay concentration) GDP and 5 nM (final assay concentration) GST-SOS1 are mixed in assay buffer prior to use and kept at room temperature.
AlphaLISA Glutathione Acceptor Beads and AlphaScreen Streptavidin Donor Beads are mixed in assay buffer at a concentration of 10 μg/mL (final assay concentration) each prior to use and kept at room temperature.
Compounds are diluted to a final start concentration of 100 μM and are tested in duplicate. Assay-ready plates (ARPs) are generated using an Access Labcyte Workstation with a Labcyte Echo 550 or 555 accoustic dispenser. For compound a start concentration of 100 μM, 150 nL of compound solution is transferred per well in 11 concentrations in duplicate with serial 1:5 dilutions.
The assay is run using a fully automated robotic system in a darkened room below 100 Lux. 10 μL of KRAS::SOS1 GDP mix is added into columns 1-24 to the 150 nL of compound solution (final dilution in the assay 1:100, final DMSO concentration 1%).
After 30 minutes incubation time 5 μL of bead mix is added into columns 1-23. Plates are kept at room temperature in a darkened incubator. After further 60 minutes incubation, the signal is measured using a PerkinElmer Envision HTS Multilabel Reader using the AlphaScreen specifications from PerkinElmer. Each plate contains the following controls: • diluted DMSO+KRAS::SOS1 GDP mix+bead mix • diluted DMSO+KRAS::SOS1 GDP mix
IC50 values are calculated and analyzed using a 4 parametric logistic model.
Tables of example compounds disclosed herein contain IC50 values determined using the above assay.

MiaPaCa-2 cells = test: MiaPaCa-2 CTG proliferation assay (pancreatic cancer); assay type: cell-based; details: Homo sapiens, MIA PaCa-2, 120 h, read-out: IC50 MiaPACA2
Experimental: MiaPaCa-2 CTG Proliferation Assay (Pancreatic Cancer)
MiaPaCa-2 cells (ATCC® CRM-CRL-1420™) were grown in cell culture flasks (175 cm^2) using DMEM medium supplemented with 10% fetal bovine serum. […] Materials used for the assay were CulturPlate-384, White Opaque 384-well microplate, Sterile and Tissue Culture Treated (Perkin Elmer #6007680), DMEM medium and FBS # SH30071.03 (HyClone).
(§3) The proliferation assays started (day1) with seeding cells in flat bottom 384 well microtiter plates in 90 μL DMEM medium supplemented with 10% FBS at a density of 500 cells/well. Any other luminescence compatible plate format is possible. On day 2, 10 μL dilutions of the test compounds covering a concentration range between app. 0, 1 and 10.000 nM were added to the cells. Cells were incubated for 5 days in a humidified, incubator with 5% CO2 at 37° C. On day 7 100 μl of Cell Titer Glow reagent (Cell titer Glo Luminescent Cat. No. G7571, Promega) were added to each well and incubated for additional 10 min at room temperature (with agitation). Luminescence was measured on a Wallac Victor using standard luminescence read out. IC50 values were calculated using standard Levenburg Marquard algorithms (GraphPad Prism).

SW837 cells = test: SW837 CTG proliferation assay (CRC); assay type: cell-based; details: Homo sapiens
Experimental: SW837 CTG Proliferation Assay (CRC)
SW837 cells (ATCC #CCL-235) were grown in cell culture flasks (175 cm^2) using L-15 10% FCS, 1% L-Glu, 1×NEAA and 1×Na-Pyrovat. Cultures were incubated at 37° C. and 0% CO2 in a humidified atmosphere, with medium change or subcultivation 2-3 times a week. Materials used for the assay were CulturPlate-384, White Opaque 384-well Microplate, Sterile and Tissue Culture Treated (Perkin Elmer #6007680), Leibovitz L15 Medium and FBS # SH30071.03 (HyClone).
as §3, with “L-15” for “DMEM medium supplemented with”, “FCS, 1% L-Glu, 1×NEAA and 1× Na-Pyrovat” for “FBS”, “humidified, CO2 controlled (no CO2)” for “humidified,”, “incubator” for “incubator with 5% CO2”, “μL” for “μl”

[4] = tested on: ERK phosphorylation in NCI-H358 (KRAS G12C mutation); test: ERK phosphorylation assay 1 (AlphaLISA SureFire Ultra p-ERK1/2); assay type: cell-based; details: Homo sapiens, assay 1 (not marked with *), read-out: IC50 H358 pERK
Excerpt: as §1, §2

[5] = Plasma protein binding (equilibrium dialysis), mouse plasma; assay type: in vitro ADME; details: read-out: PPB mouse fu
Experimental: (§4) Plasma Protein Binding (PPB)
(§5) Binding of test compound to plasma was determined using equilibrium dialysis (ED) and quantitative mass spectrometry interfaced with liquid chromatography (LC-MS). In brief, ED was performed with dialysis devices consisting of two chambers separated by a semipermeable membrane with a molecular weight cut-off of 5-10 kg/mol. One chamber was filled with commercially sourced plasma (mouse and human plasma, respectively) or serum (10% FCS in PBS) containing 1-10 μmol/L test compound and the other chamber was filled with phosphate-buffer saline (PBS) with or without dextran. The dialysis chamber was incubated for 3-5 hours at 37° C. After incubation, protein was precipitated from aliquots of each chamber and the concentration of test compound in the supernatant of the plasma-containing compartment (cplasma) and of the buffer-containing compartment (Cbuffer) was determined by LC-MS. The fraction of unbound test compound (not bound to plasma) (fu) was calculated according to the following equation: […]

[6] = Plasma protein binding (equilibrium dialysis), serum 10% FCS in PBS; assay type: in vitro ADME; details: bovine, 10% FCS in PBS (serum), read-out: PPB 10% FCS fu
Experimental: as §4, §5

[7] = Plasma protein binding (equilibrium dialysis), human plasma; assay type: in vitro ADME; details: read-out: PPB human fu
Experimental: as §4, §5

[8] = MiaPaCa-2 CTG proliferation, 5 days
[9] = SW837 CTG proliferation, read-out: IC50 SW837

Row | SMILES | GI50 [1] [nM] | pIC50 (NCI-H358 cells) | pIC50 [2] | pIC50 ([3]; KRAS G12C::SOS1 AlphaScreen) | pIC50 (MiaPaCa-2 cells; [8]) | pIC50 (SW837 cells; [9]) | pIC50 ([3]; KRAS G12C 7.5 nM, GST-SOS1 5 nM, GDP 10 μM) | pIC50 [4] | fraction unbound [5] | fraction unbound [6] | fraction unbound [7] | pIC50 (MiaPaCa-2 cells) | pIC50 (SW837 cells; SW837, read-out: IC50 SW837)
1 | C=CC(=O)N1CCN(c2cc(O[C@@H](C)[C@@H]3CCCN3C)nc(-c3cc(C4(C)CCCc5sc(N)c(C#N)c54)no3)n2)CC1 (stereo partly shown) [Ic-1] | 1.5 | 8.50 | 8.80 | 8.52 | 7.62 | 8.89 | – | – | – | – | – | – | –
2 | C=CC(=O)N1CCN(c2cc(N3CCN(C)CC3)nc(-n3cc(C4(C)CCCc5sc(N)c(C#N)c54)cn3)c2)CC1 (stereo not shown) [Ie-1] | – | – | – | – | – | – | 6.55 | 6.90 | – | – | – | – | –
3 | C=CC(=O)N1CCN(c2nc(=O)n(-c3c(C)ccnc3C(C)C)c3nc(-c4c(O)cccc4F)c(F)cc23)[C@@H](C)C1 [sotorasib, reference compound] | – | – | – | – | – | – | – | – | 0.094 | 0.774 | 0.027 | 7.31 | 7.77
4 | C=CC(=O)N1CCN(c2cc(O[C@@H](C)[C@@H]3CCCN3C)nc(-c3cc([C@@]4(C)CCCc5sc(N)c(C#N)c54)no3)n2)[C@H](C)C1 [Ic-2] | 2.3 | 8.32 | 8.43 | 8.70 | 8.05 | 8.44 | – | – | – | – | – | – | –
